pIC50: −log10 of the molar value.
Molecular target: T1, recombinant human SAE enzyme (Homo sapiens, UniProt Q9UBT2)
T1 sequence (Q9UBT2 1-640): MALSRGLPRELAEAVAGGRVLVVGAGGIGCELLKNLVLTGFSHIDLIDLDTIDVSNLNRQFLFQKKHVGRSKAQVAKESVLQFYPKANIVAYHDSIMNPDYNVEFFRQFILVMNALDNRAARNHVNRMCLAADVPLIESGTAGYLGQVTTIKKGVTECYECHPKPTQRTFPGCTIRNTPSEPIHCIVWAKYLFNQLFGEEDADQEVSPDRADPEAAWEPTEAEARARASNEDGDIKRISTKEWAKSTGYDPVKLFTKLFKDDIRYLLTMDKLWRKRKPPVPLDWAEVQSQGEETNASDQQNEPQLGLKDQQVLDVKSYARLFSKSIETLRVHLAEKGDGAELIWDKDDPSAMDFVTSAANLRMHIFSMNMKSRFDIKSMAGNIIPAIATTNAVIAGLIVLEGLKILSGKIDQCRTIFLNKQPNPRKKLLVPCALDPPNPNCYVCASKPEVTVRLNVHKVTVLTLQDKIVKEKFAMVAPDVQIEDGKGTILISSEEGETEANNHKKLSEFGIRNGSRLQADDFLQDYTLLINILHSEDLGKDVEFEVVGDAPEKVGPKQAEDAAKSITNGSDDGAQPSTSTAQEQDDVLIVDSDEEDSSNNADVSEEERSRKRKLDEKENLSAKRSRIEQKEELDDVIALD
T1 sequence (Q9UBE0 1-346 partner): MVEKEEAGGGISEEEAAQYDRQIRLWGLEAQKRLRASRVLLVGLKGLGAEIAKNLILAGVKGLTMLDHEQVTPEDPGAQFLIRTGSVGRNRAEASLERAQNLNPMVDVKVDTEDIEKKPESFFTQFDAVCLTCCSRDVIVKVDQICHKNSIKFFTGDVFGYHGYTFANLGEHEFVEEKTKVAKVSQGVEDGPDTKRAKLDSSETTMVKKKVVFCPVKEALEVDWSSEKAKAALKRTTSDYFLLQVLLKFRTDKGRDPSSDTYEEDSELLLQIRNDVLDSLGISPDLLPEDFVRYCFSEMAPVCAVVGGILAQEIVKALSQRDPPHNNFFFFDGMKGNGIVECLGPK
Assay: SAE HTRF Enzyme Assay
Assay type: biochemical
Conditions: for pIC50: class symbols A-C; for inhibition at 0.111 µM: compound concentration 0.111 μM, read-out: Percent Inhibition
Outline: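 Recombinant human SAE (0.11 nM) transferred Sumo-Flag (0.125 μM) to Ubc9-GST (0.01 μM) with 0.5 μM ATP in HEPES pH 7.5, MgCl2, GSH, BSA; 105 min at 24° C. EDTA stop, Eu-cryptate anti-Flag and XL-APC anti-GST added, 2 h, then HTRF read. Values given as % inhibition at one concentration or IC50.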

Compound	pIC50	inhibition at 0.111 µM [%]
NS(=O)(=O)OC[C@H]1C[C@@H](Nc2ncncc2C(=O)c2ccn(Cc3cccc(C(F)(F)F)c3)n2)C[C@@H]1O [Compound I-140, [(1R,2S,4R)-2-hydroxy-4-{[5-({1-[3-(trifluoromethyl)benzyl]-1H-pyrazol-3-yl}carbonyl)pyrimidin-4-yl]amino}cyclopentyl]methyl sulfamate]	> 8.00	98
NS(=O)(=O)OC[C@H]1C[C@@H](Nc2ncncc2C(=O)c2ccn(Cc3ccc(F)c(Cl)c3)c2)[C@@H](F)[C@@H]1O [Compound I-141, {(1R,2R,3R,4R)-4-[(5-{[1-(3-chloro-4-fluorobenzyl)-1H-pyrrol-3-yl]carbonyl}pyrimidin-4-yl)amino]-3-fluoro-2-hydroxycyclopentyl}methy1 sulfamate]	> 8.00	99
NS(=O)(=O)OC[C@H]1C[C@@H](Nc2ncncc2C(=O)c2ccn(Cc3ccccc3)n2)[C@H](O)[C@@H]1O [Compound I-142, [(1R,2R,3S,4R)-4-({5-[(1-Benzyl-1H-pyrazol-3-yl)carbonyl]pyrimidin-4-yl}amino)-2,3-dihydroxycyclopentyl]methyl sulfamate]	> 8.00	99
NS(=O)(=O)OC[C@H]1C[C@@H](Nc2ncncc2C(=O)c2ccn(Cc3ccc(F)c(Br)c3)c2)[C@@H](F)[C@@H]1O [Compound I-143, {(1R,2R,3R,4R)-4-[(5-{[1-(3-bromo-4-fluorobenzyl)-1H-pyrrol-3-yl]carbonyl}pyrimidin-4-yl)amino]-3-fluoro-2-hydroxycyclopentyl}methyl sulfamate]	> 8.00	99
NS(=O)(=O)OC[C@H]1C[C@@H](Nc2ncncc2C(=O)c2ccn(Cc3ccc4nccn4c3)n2)C[C@@H]1O [Compound I-144, {(1R,2S,4R)-2-hydroxy-4-[(5-{[1-(imidazo[1,2-a]pyridin-6-ylmethyl)-1H-pyrazol-3-yl]carbonyl}pyrimidin-4-yl)amino]cyclopentyl}methyl sulfamate]	> 8.00	97
NS(=O)(=O)OC[C@H]1C[C@@H](Nc2ncncc2C(=O)c2ccn(CC3=CCCOC3)n2)C[C@@H]1O [Compound I-145, {(1R,2S,4R)-4-[(5-{[1-(5,6-dihydro-2H-pyran-3-ylmethyl)-1H-pyrazol-3-yl]carbonyl}pyrimidin-4-yl)amino]-2-hydroxycyclopentyl}methyl sulfamate]	7.00 to 8.00	65
NS(=O)(=O)OC[C@H]1C[C@@H](Nc2ncncc2C(=O)c2ccn(Cc3ccc(Cl)cc3F)n2)[C@H](O)[C@@H]1O [Compound I-146, {(1R,2R,3S,4R)-4-[(5-{[1-(4-chloro-2-fluorobenzyl)-1H-pyrazol-3-yl]carbonyl}pyrimidin-4-yl)amino]-2,3-dihydroxycyclopentyl}methyl sulfamate]	> 8.00	99
NS(=O)(=O)OC[C@H]1C[C@@H](Nc2ncncc2C(=O)c2ccn(Cc3cccc(Cl)c3)c2)[C@@H](F)[C@@H]1O [Compound I-147, {(1R,2R,3R,4R)-4-[(5-{[1-(3-chlorobenzyl)-1H-pyrrol-3-yl]carbonyl}pyrimidin-4-yl)amino]-3-fluoro-2-hydroxycyclopentyl}methyl sulfamate]	> 8.00	> 99
NS(=O)(=O)OC[C@H]1C[C@@H](Nc2ncncc2C(=O)c2cc(Cl)n(Cc3cc(C(F)(F)F)on3)c2)[C@@H](F)[C@@H]1O [Compound I-148, [(1R,2R,3R,4R)-4-({5-[(5-chloro-1-{[5-(trifluoromethyl)isoxazol-3-yl]methyl}-1H-pyrrol-3-yl)carbonyl]pyrimidin-4-yl}amino)-3-fluoro-2-hydroxycyclopentyl]methyl sulfamate]	7.00 to 8.00	85
Cc1cn(Cc2cccc(Br)c2)cc1C(=O)c1cncnc1N[C@@H]1C[C@H](COS(N)(=O)=O)[C@@H](O)[C@@H]1F [Compound I-149, {(1R,2R,3R,4R)-4-[(5-{[1-(3-bromobenzyl)-4-methyl-1H-pyrrol-3-yl]carbonyl}pyrimidin-4-yl)amino]-3-fluoro-2-hydroxycyclopentyl}methyl sulfamate]	7.00 to 8.00	85
NS(=O)(=O)OC[C@H]1C[C@@H](Nc2ncncc2C(=O)c2ccn(Cc3ccccn3)n2)[C@H](O)[C@@H]1O [Compound I-150, {(1R,2R,3S,4R)-2,3-dihydroxy-4-[(5-{[1-(pyridin-2-ylmethyl)-1H-pyrazol-3-yl]carbonyl}pyrimidin-4-yl)amino]cyclopentyl}methyl sulfamate]	> 8.00	98
COC(C)(C)C#CCn1ccc(C(=O)c2cncnc2N[C@@H]2C[C@H](COS(N)(=O)=O)[C@@H](O)C2)n1 [Compound I-151, {(1R,2S,4R)-2-hydroxy-4-[(5-{[1-(4-methoxy-4-methylpent-2-yn-1-yl)-1H-pyrazol-3-yl]carbonyl}pyrimidin-4-yl)amino]cyclopentyl}methyl sulfamate]	7.00 to 8.00	54
NS(=O)(=O)OC[C@H]1C[C@@H](Nc2ncncc2C(=O)c2ccn(Cc3ccc(Cl)c(OC(F)(F)F)c3)n2)C[C@@H]1O [Compound I-152, [(1R,2S,4R)-4-{[5-({1-[4-Chloro-3-(trifluoromethoxy)benzyl]-1H-pyrazol-3-yl}carbonyl)pyrimidin-4-yl]amino}-2-hydroxycyclopentyl]methyl sulfamate]	> 8.00	94
CC(C)CC#CCn1ccc(C(=O)c2cncnc2N[C@@H]2C[C@H](COS(N)(=O)=O)[C@@H](O)C2)n1 [Compound I-153, {(1R,2S,4R)-2-hydroxy-4-[(5-{[1-(5-methylhex-2-yn-1-yl)-1H-pyrazol-3-yl]carbonyl}pyrimidin-4-yl)amino]cyclopentyl}methyl sulfamate]	7.00 to 8.00	82
CC(C)(O)C#CCn1ccc(C(=O)c2cncnc2N[C@@H]2C[C@H](COS(N)(=O)=O)[C@@H](O)C2)n1 [Compound I-154, {(1R,2S,4R)-2-hydroxy-4-[(5-{[1-(4-hydroxy-4-methylpent-2-yn-1-yl)-1H-pyrazol-3-yl]carbonyl}pyrimidin-4-yl)amino]cyclopentyl}methyl sulfamate]	6.00 to 7.00	39
NS(=O)(=O)OC[C@H]1C[C@@H](Nc2ncncc2C(=O)c2ccn(Cc3cc(C(F)(F)F)cc(C(F)(F)F)c3)n2)[C@H](O)[C@@H]1O [Compound I-155, [(1R,2R,3S,4R)-4-{[5-({1-[3,5-bis(trifluoromethyl)benzyl]-1H-pyrazol-3-yl}carbonyl)pyrimidin-4-yl]amino}-2,3-dihydroxycyclopentyl]methyl sulfamate]	> 8.00	97
NS(=O)(=O)OC[C@H]1C[C@@H](Nc2ncncc2C(=O)c2ccn(Cc3ccc(Cl)c(C(F)(F)F)c3)n2)[C@@H](F)[C@@H]1O [Compound I-156, [(1R,2R,3R,4R)-4-{[5-({1-[4-chloro-3-(trifluoromethyl)benzyl]-1H-pyrazol-3-yl}carbonyl)pyrimidin-4-yl]amino}-3-fluoro-2-hydroxycyclopentyl]methyl sulfamate]	7.00 to 8.00	90

— US9695154B2, “Heteroaryl inhibitors of sumo activating enzyme” (MILLENNIUM PHARMACEUTICALS, INC., priority 2013, dated 2017)
